These results are taken from patent US20240018133A1, “MODULATORS OF THE INTEGRATED STRESS PATHWAY” (Calico Life Sciences LLC, priority 2019, published 2024).

The assay relates to ATF4 luciferase reporter (human full-length ATF4 5'-UTR fused to firefly luciferase) in HEK293T cells. The assay can be described thus: ATF4-Luc assay (in vitro model of VWMD): HEK293T cells carrying ATF4 luciferase reporter, tunicamycin-treated. As to conditions: Homo sapiens, HEK-293T, 1 μg/mL tunicamycin, 7 hours, One Glo luminescence. Format: cell-based. The method in brief:
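Compound at 200 nM and tunicamycin at 1 μg/mL were given together for 7 h to HEK293T cells stably transduced with an ATF4 5′-UTR-driven firefly luciferase reporter. Read-out by luminescence, reported as EC50.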

Consider `CS(=O)(=O)N[C@@H]1C[C@@H](C(=O)NC23CC(NC(=O)COc4ccc(Cl)c(F)c4)(C2)C3)Oc2ccc(Cl)cc21` [Compound 245, (2S,4R)-6-chloro-N-{3-[2-(4-chloro-3-fluorophenoxy)acetamido]bicyclo[1.1.1]pentan-1-yl}-4-[(methanesulfonyl)amino]-3,4-dihydro-2H-1-benzopyran-2-carboxamide], for which the EC50 (as a rule, the concentration that produces a half-maximal response) was less than 0.01 µM. For `O=C(COc1ccc(Cl)c(F)c1)NC12CC(NC(=O)C3CC(O)c4cc(F)c(Cl)cc4O3)(C1)C2` (stereo not drawn) [Compound 246, 7-chloro-N-{3-[2-(4-chloro-3-fluorophenoxy)acetamido]bicyclo[1.1.1]pentan-1-yl}-6-fluoro-4-hydroxy-3,4-dihydro-2H-1-benzopyran-2-carboxamide] the value was less than 0.01 µM. For `O=C(COc1ccc(Cl)c(F)c1)NC12CC(NC(=O)C3CC(O)c4ccc(Cl)cc4O3)(C1)C2` (stereo not drawn) [Compound 247, 7-chloro-N-{3-[2-(4-chloro-3-fluorophenoxy)acetamido]bicyclo[1.1.1]pentan-1-yl}-4-hydroxy-3,4-dihydro-2H-1-benzopyran-2-carboxamide], the EC50 was less than 0.01 µM. Turning to `O=C(COc1ccc(Cl)c(F)c1)NC12CC(NC(=O)C3CC(=O)c4cc(F)c(F)cc4O3)(C1)C2` (stereo not drawn) [Compound 248, N-{3-[2-(4-chloro-3-fluorophenoxy)acetamido]bicyclo[1.1.1]pentan-1-yl}-6,7-difluoro-4-oxo-3,4-dihydro-2H-1-benzopyran-2-carboxamide], the EC50 is less than 0.01 µM. For the compound `O=C(COc1ccc(Cl)c(F)c1)NC12CC(NC(=O)[C@H]3C[C@@H](O)c4cc(F)c(F)cc4O3)(C1)C2` [Compound 252, (2R,4R)—N-{3-[2-(4-chloro-3-fluorophenoxy)acetamido]bicyclo[1.1.1]pentan-1-yl}-6,7-difluoro-4-hydroxy-3,4-dihydro-2H-1-benzopyran-2-carboxamide], the EC50 was less than 0.01 µM. In the case of `O=C(COc1ccc(Cl)c(F)c1)NC12CC(NC(=O)[C@@H]3C[C@H](O)c4cc(F)c(F)cc4O3)(C1)C2` [Compound 253, (2S,4S)—N-{3-[2-(4-chloro-3-fluorophenoxy)acetamido]bicyclo[1.1.1]pentan-1-yl}-6,7-difluoro-4-hydroxy-3,4-dihydro-2H-1-benzopyran-2-carboxamide], the half-maximal effective concentration (EC50) was less than 0.01 µM. Take `Cc1ccc2c(c1)C(O)CC(C(=O)NC13CC(NC(=O)COc4ccc(Cl)c(F)c4)(C1)C3)O2` (stereo not drawn) [Compound 254, N-{3-[2-(4-chloro-3-fluorophenoxy)acetamido]bicyclo[1.1.1]pentan-1-yl}-4-hydroxy-6-methyl-3,4-dihydro-2H-1-benzopyran-2-carboxamide]: the EC50 was less than 0.01 µM. Consider `O=C(COc1ccc(Cl)c(F)c1)NC12CCC(NC(=O)[C@H]3CC(=O)c4cc(Cl)ccc4O3)(C1)C2` [Compound 255, (2R)-6-chloro-N-{4-[2-(4-chloro-3-fluorophenoxy)acetamido]bicyclo[2.1.1]hexan-1-yl}-4-oxo-3,4-dihydro-2H-1-benzopyran-2-carboxamide], for which the EC50 was less than 0.01 µM. As for `O=C(COc1ccc(Cl)c(F)c1)NC12CCC(NC(=O)[C@H]3C[C@@H](O)c4cc(Cl)ccc4O3)(C1)C2` [Compound 256, (2R,4R)-6-chloro-N-{4-[2-(4-chloro-3-fluorophenoxy)acetamido]bicyclo[2.1.1]hexan-1-yl}-4-hydroxy-3,4-dihydro-2H-1-benzopyran-2-carboxamide], the EC50 was less than 0.01 µM.

With `C[C@@]1(C(=O)NC23CC(NC(=O)COc4ccc(Cl)c(F)c4)(C2)C3)Cc2cc(Cl)ccc2O1` [Compound 257, (2S)-5-chloro-N-{3-[2-(4-chloro-3-fluorophenoxy)acetamido]bicyclo[1.1.1]pentan-1-yl}-2-methyl-2,3-dihydro-1-benzofuran-2-carboxamide], the EC50 is more than 2 µM. The same measure for `C[C@]1(C(=O)NC23CC(NC(=O)COc4ccc(Cl)c(F)c4)(C2)C3)Cc2cc(Cl)ccc2O1` [Compound 258, (2R)-5-chloro-N-{3-[2-(4-chloro-3-fluorophenoxy)acetamido]bicyclo[1.1.1]pentan-1-yl}-2-methyl-2,3-dihydro-1-benzofuran-2-carboxamide]: more than 2 µM; for `C[C@]1(C(=O)NC23CC(NC(=O)COc4ccc(Cl)c(F)c4)(C2)C3)Oc2ccc(Cl)cc2C1=O` [Compound 259, (2S)-5-chloro-N-{3-[2-(4-chloro-3-fluorophenoxy)acetamido]bicyclo[1.1.1]pentan-1-yl}-2-methyl-3-oxo-2,3-dihydro-1-benzofuran-2-carboxamide]: 0.5 to 2 µM. As to `O=C(COc1ccc(Cl)c(F)c1)NC12CCC(NC(=O)[C@H]3C[C@H](O)c4cc(Cl)ccc4O3)(C1)C2` [Compound 260, (2R,4S)-6-chloro-N-{4-[2-(4-chloro-3-fluorophenoxy)acetamido]bicyclo[2.1.1]hexan-1-yl}-4-hydroxy-3,4-dihydro-2H-1-benzopyran-2-carboxamide], the EC50 is less than 0.01 µM. For `O=C(COc1ccc(Cl)c(F)c1)NC12CC(NC(=O)C3Cc4cc(Cl)ccc4N3)(C1)C2` (stereo not drawn) [Compound 261, 5-chloro-N-{3-[2-(4-chloro-3-fluorophenoxy)acetamido]bicyclo[1.1.1]pentan-1-yl}-2,3-dihydro-1H-indole-2-carboxamide], the EC50 lay within 0.05 to 0.25 µM.

Consider `C[C@]1(C(=O)NC23CC(NC(=O)COc4ccc(Cl)c(F)c4)(C2)C3)Oc2ccc(Cl)cc2C1O` (stereo partly drawn) [Compound 262, (2S)-5-chloro-N-{3-[2-(4-chloro-3-fluorophenoxy)acetamido]bicyclo[1.1.1]pentan-1-yl}-3-hydroxy-2-methyl-2,3-dihydro-1-benzofuran-2-carboxamide], for which the EC50 is more than 2 µM. Take `C[C@@]1(C(=O)NC23CC(NC(=O)COc4ccc(Cl)c(F)c4)(C2)C3)Oc2ccc(Cl)cc2C1O` (stereo partly drawn) [Compound 263, (2R)-5-chloro-N-{3-[2-(4-chloro-3-fluorophenoxy)acetamido]bicyclo[1.1.1]pentan-1-yl}-3-hydroxy-2-methyl-2,3-dihydro-1-benzofuran-2-carboxamide]: the half-maximal effective concentration (EC50) is more than 2 µM. For `O=C(COc1ccc(Cl)c(F)c1)NC12CC(NC(=O)[C@H]3C[C@@H](O)c4cc(Cl)c(F)cc4O3)(C1)C2` [Compound 264, (2R,4R)-6-chloro-N-{3-[2-(4-chloro-3-fluorophenoxy)acetamido]bicyclo[1.1.1]pentan-1-yl}-7-fluoro-4-hydroxy-3,4-dihydro-2H-1-benzopyran-2-carboxamide] the value was less than 0.01 µM; for `CN1c2ccc(Cl)cc2CC1C(=O)NC12CC(NC(=O)COc3ccc(Cl)c(F)c3)(C1)C2` (stereo not drawn) [Compound 266, 5-chloro-N-{3-[2-(4-chloro-3-fluorophenoxy)acetamido]bicyclo[1.1.1]pentan-1-yl}-1-methyl-2,3-dihydro-1H-indole-2-carboxamide], 0.05 to 0.25 µM.

Regarding `O=C(COc1ccc(Cl)c(F)c1)NC12CC(NC(=O)[C@H]3C[C@@H](O)c4ccccc4O3)(C1)C2` [Compound 267, (2R,4R)—N-{3-[2-(4-chloro-3-fluorophenoxy)acetamido]bicyclo[1.1.1]pentan-1-yl}-4-hydroxy-3,4-dihydro-2H-1-benzopyran-2-carboxamide], the EC50 is 0.01 to 0.05 µM. The same measure for `O=C(COc1ccc(Cl)c(F)c1)NC12CC(NC(=O)[C@H]3CC(=O)c4ccccc4O3)(C1)C2` [Compound 268, (2R)—N-{3-[2-(4-chloro-3-fluorophenoxy)acetamido]bicyclo[1.1.1]pentan-1-yl}-4-oxo-3,4-dihydro-2H-1-benzopyran-2-carboxamide]: 0.01 to 0.05 µM; for `O=C(COc1ccc(Cl)c(F)c1)NC12CC(NC(=O)[C@@H]3CC(=O)c4ccccc4O3)(C1)C2` [Compound 269, (2S)—N-{3-[2-(4-chloro-3-fluorophenoxy)acetamido]bicyclo[1.1.1]pentan-1-yl}-4-oxo-3,4-dihydro-2H-1-benzopyran-2-carboxamide]: 0.05 to 0.25 µM; for `O=C(COc1ccc(Cl)c(F)c1)NC12CC(NC(=O)[C@@H]3C[C@H](O)c4ccccc4O3)(C1)C2` [Compound 270, (2S,4S)—N-{3-[2-(4-chloro-3-fluorophenoxy)acetamido]bicyclo[1.1.1]pentan-1-yl}-4-hydroxy-3,4-dihydro-2H-1-benzopyran-2-carboxamide]: 0.05 to 0.25 µM. Take `O=C(COc1ccc(F)c(F)c1)NC12CC(NC(=O)[C@H]3CC(=O)c4cc(F)c(F)cc4O3)(C1)C2` [Compound 271, (2R)—N-{3-[2-(3,4-difluorophenoxy)acetamido]bicyclo[1.1.1]pentan-1-yl}-6,7-difluoro-4-oxo-3,4-dihydro-2H-1-benzopyran-2-carboxamide]: the EC50 lay within 0.01 to 0.05 µM. For the compound `O=C(COc1ccc(F)c(F)c1)NC12CC(NC(=O)[C@H]3C[C@@H](O)c4cc(F)c(F)cc4O3)(C1)C2` [Compound 272, (2R,4R)—N-{3-[2-(3,4-difluorophenoxy)acetamido]bicyclo[1.1.1]pentan-1-yl}-6,7-difluoro-4-hydroxy-3,4-dihydro-2H-1-benzopyran-2-carboxamide], the EC50 was less than 0.01 µM. The same measure for `O=C(COc1ccc(F)c(F)c1)NC12CC(NC(=O)[C@@H]3C[C@H](O)c4cc(F)c(F)cc4O3)(C1)C2` [Compound 273, (2S,4S)—N-{3-[2-(3,4-difluorophenoxy)acetamido]bicyclo[1.1.1]pentan-1-yl}-6,7-difluoro-4-hydroxy-3,4-dihydro-2H-1-benzopyran-2-carboxamide]: 0.01 to 0.05 µM; for `CCc1ncc(C(=O)NC23CCC(NC(=O)[C@H]4C[C@@H](O)c5cc(Cl)ccc5O4)(CC2)C[C@@H]3O)o1` [Compound 274, N-[(2S)-4-{[(2R,4R)-6-chloro-4-hydroxy-3,4-dihydro-2H-1-benzopyran-2-carbonyl]amino}-2-hydroxybicyclo[2.2.2]octan-1-yl]-2-ethyl-1,3-oxazole-5-carboxamide]: 0.05 to 0.25 µM; for `O=C(COc1ccc(F)c(F)c1)NC12CC(NC(=O)[C@H]3CC(=O)c4cc(Cl)ccc4O3)(C1)C2` [Compound 275, (2R)-6-chloro-N-{3-[2-(3,4-difluorophenoxy)acetamido]bicyclo[1.1.1]pentan-1-yl}-4-oxo-3,4-dihydro-2H-1-benzopyran-2-carboxamide]: less than 0.01 µM.
